US12435044B2, “Pyridazinone herbicides and pyridazinone intermediates used to prepare a herbicide” (FMC Corporation, priority 2018, dated 2025)

Legend:
Format in all cases: in vivo
[1] = system: Bulrush, Japanese (Scirpus juncoides); experiment: Test C flooded paddy test; details: Flood, scale 0 to 100
Excerpt: Plant species in the flooded paddy test consisted of rice (transplanted and water seeded, Oryza sativa), sedge, umbrella (small-flower umbrella sedge, Cyperus difformis), ducksalad (Heteranthera limosa), Bulrush, Japanese (Scirpus juncoides) and barnyardgrass (Echinochloa crus-galli) grown to the 2-leaf stage for testing. At time of treatment, test pots were flooded to 3 cm above the soil surface, treated by application of test compounds directly to the paddy water, and then maintained at that water depth for the duration of the test. Treated plants and controls were maintained in a greenhouse for 13 to 15 d, after which time all species were compared to controls and visually evaluated. Plant response ratings, summarized in Table C are based on a scale of 0 to 100 where 0 is no effect and 100 is complete control. A dash (-) response means no test result.

[2] = system: common ragweed (AMBEL; Ambrosia artemisiifolia); experiment: Test I pre-/postemergence, mixtures of Cpd. No. 20 with saflufenacil or pyroxasulfone; details: for Plant response rating (0 to 100 scale): AMBEL
Excerpt: (§1) This test evaluated the effect of mixtures of Cpd. No. 20 with saflufenacil or pyroxasulfone on several plant species. Seeds of plant species selected from corn (ZEAMD; Zea mays, cv. ‘Pioneer 1184’), soybean (GLXMA; Glycine max, cv. Pioneer 35T58), giant foxtail (SETFA; Setaria faberi), palmer amaranth (AMAPA; Amaranthus palmeri), common waterhemp (AMATU; Amaranthus rudis), mare's tail (ERICA; Conyza canadensis), and common ragweed (AMBEL; Ambrosia artemisiifolia) were planted in pots containing Tama Silt Loam soil and treated preemergence with a directed soil spray using test chemicals formulated in a non-phytotoxic solvent mixture which included a surfactant.
(§2) At the same time, plants selected from these crop and weed species were planted in pots containing Redi-Earth® planting medium (Scotts Company, 14111 Scottslawn Road, Marysville, Ohio 43041) comprising spaghnum peat moss, vermiculite, wetting agent and starter nutrients and treated postemergence with test chemicals formulated in the same manner. Plants ranged in height from 2 to 10 cm and were in the one- to two-leaf stage for the postemergence treatment. Treated plants and untreated controls were maintained in a greenhouse for approximately 14-21 d, after which time all treated plants were compared to untreated controls and visually evaluated for injury. Plant response ratings, summarized in Tables 11 to 14, are based on a 0 to 100 scale where 0 is no effect and 100 is complete control. A dash (-) response means no test result. Test results are presented as a mean of 4 reps.

[3] = system: common waterhemp (AMATU; Amaranthus rudis); experiment: as above; details: for Plant response rating (0 to 100 scale): AMATU
Excerpt: as §1, §2

[4] = system: corn (ZEAMD; Zea mays, cv. ‘Pioneer 1184’); experiment: as above; details: for Plant response rating (0 to 100 scale): ZEAMD
Excerpt: as §1, §2

[5] = system: giant foxtail (SETFA; Setaria faberi); experiment: as above; details: for Plant response rating (0 to 100 scale): SETFA
Excerpt: as §1, §2

[6] = system: mare's tail (ERICA; Conyza canadensis); experiment: as above; details: for Plant response rating (0 to 100 scale): Preemergence, ERICA
Excerpt: as §1, §2

[7] = system: palmer amaranth (AMAPA; Amaranthus palmeri); experiment: as above; details: for Plant response rating (0 to 100 scale): AMAPA
Excerpt: as §1, §2

[8] = system: soybean (GLXMA; Glycine max, cv. Pioneer 35T58); experiment: as above; details: for Plant response rating (0 to 100 scale): GLXMA
Excerpt: as §1, §2

[9] = Preemergence, Cpd. No. 20 8 g a.i./ha alone
[10] = preemergence, Cpd. No. 20 16 g a.i./ha alone
[11] = preemergence, Cpd. No. 20 31 g a.i./ha alone
[12] = preemergence, Cpd. No. 20 62 g a.i./ha alone

Compound: Cc1cc(Cl)c2ccccc2c1-c1c(O)c(Cl)nn(C)c1=O [Cpd. No. 65]
- Plant response rating, Bulrush, Japanese ([1]; 62 g ai/ha): 75
- Plant response rating, Bulrush, Japanese ([1]; 125 g ai/ha): 90

Compound: Cc1ccc2ccc(C)c(-c3c(O)c(Cl)nn(C)c3=O)c2c1 [Cpd. No. 20, 6-chloro-4-(2,7-dimethyl-1-naphthalenyl)-5-hydroxy-2-methyl-3(2H)-pyridazinone]
- Plant response rating (0 to 100 scale) [2, 9]: 0
- AMBEL plant response rating, 0 to 100 scale ([2]; postemergence, 8 g a.i./ha): 86
- AMBEL plant response rating, 0 to 100 scale ([2]; postemergence, 16 g a.i./ha): 90
- AMBEL plant response rating, 0 to 100 scale ([2]; postemergence, 31 g a.i./ha): 100
- AMBEL plant response rating, 0 to 100 scale ([2]; postemergence, 62 g a.i./ha): 94
- AMBEL plant response rating, 0 to 100 scale ([2]; preemergence, 8 g a.i./ha): 0
- AMBEL plant response rating, 0 to 100 scale ([2]; preemergence, 16 g a.i./ha): 10
- AMBEL plant response rating, 0 to 100 scale ([2]; preemergence, 31 g a.i./ha): 69
- AMBEL plant response rating, 0 to 100 scale ([2]; preemergence, 62 g a.i./ha): 98
- Plant response rating (0 to 100 scale) [2, 10]: 10
- Plant response rating (0 to 100 scale) [2, 11]: 69
- Plant response rating (0 to 100 scale) [2, 12]: 98
- Plant response rating (0 to 100 scale) [3, 9]: 0
- AMATU plant response rating, 0 to 100 scale ([3]; postemergence, 8 g a.i./ha): 50
- AMATU plant response rating, 0 to 100 scale ([3]; postemergence, 16 g a.i./ha): 59
- AMATU plant response rating, 0 to 100 scale ([3]; postemergence, 31 g a.i./ha): 81
- AMATU plant response rating, 0 to 100 scale ([3]; postemergence, 62 g a.i./ha): 83
- AMATU plant response rating, 0 to 100 scale ([3]; preemergence, 8 g a.i./ha): 0
- AMATU plant response rating, 0 to 100 scale ([3]; preemergence, 16 g a.i./ha): 0
- AMATU plant response rating, 0 to 100 scale ([3]; preemergence, 31 g a.i./ha): 0
- AMATU plant response rating, 0 to 100 scale ([3]; preemergence, 62 g a.i./ha): 80
- Plant response rating (0 to 100 scale) [3, 10]: 0
- Plant response rating (0 to 100 scale) [3, 11]: 0
- Plant response rating (0 to 100 scale) [3, 12]: 80
- Plant response rating (0 to 100 scale) [4, 9]: 0
- ZEAMD plant response rating, 0 to 100 scale ([4]; postemergence, 8 g a.i./ha): 0
- ZEAMD plant response rating, 0 to 100 scale ([4]; postemergence, 16 g a.i./ha): 0
- ZEAMD plant response rating, 0 to 100 scale ([4]; postemergence, 31 g a.i./ha): 0
- ZEAMD plant response rating, 0 to 100 scale ([4]; postemergence, 62 g a.i./ha): 0
- ZEAMD plant response rating, 0 to 100 scale ([4]; preemergence, 8 g a.i./ha): 0
- ZEAMD plant response rating, 0 to 100 scale ([4]; preemergence, 16 g a.i./ha): 0
- ZEAMD plant response rating, 0 to 100 scale ([4]; preemergence, 31 g a.i./ha): 0
- ZEAMD plant response rating, 0 to 100 scale ([4]; preemergence, 62 g a.i./ha): 0
- Plant response rating (0 to 100 scale) [4, 10]: 0
- Plant response rating (0 to 100 scale) [4, 11]: 0
- Plant response rating (0 to 100 scale) [4, 12]: 0
- Plant response rating (0 to 100 scale) [5, 9]: 25
- SETFA plant response rating, 0 to 100 scale ([5]; postemergence, 8 g a.i./ha): 55
- SETFA plant response rating, 0 to 100 scale ([5]; postemergence, 16 g a.i./ha): 80
- SETFA plant response rating, 0 to 100 scale ([5]; postemergence, 31 g a.i./ha): 76
- SETFA plant response rating, 0 to 100 scale ([5]; postemergence, 62 g a.i./ha): 78
- SETFA plant response rating, 0 to 100 scale ([5]; preemergence, 8 g a.i./ha): 25
- SETFA plant response rating, 0 to 100 scale ([5]; preemergence, 16 g a.i./ha): 39
- SETFA plant response rating, 0 to 100 scale ([5]; preemergence, 31 g a.i./ha): 84
- SETFA plant response rating, 0 to 100 scale ([5]; preemergence, 62 g a.i./ha): 99
- Plant response rating (0 to 100 scale) [5, 10]: 39
- Plant response rating (0 to 100 scale) [5, 11]: 84
- Plant response rating (0 to 100 scale) [5, 12]: 99
- Plant response rating (0 to 100 scale) ([6]; Cpd. No. 20 8 g a.i./ha alone): 93
- Plant response rating (0 to 100 scale) ([6]; Cpd. No. 20 16 g a.i./ha alone): 100
- Plant response rating (0 to 100 scale) ([6]; Cpd. No. 20 31 g a.i./ha alone): 100
- Plant response rating (0 to 100 scale) ([6]; Cpd. No. 20 62 g a.i./ha alone): 100
- ERICA plant response rating, 0 to 100 scale ([6]; postemergence, 8 g a.i./ha): 85
- ERICA plant response rating, 0 to 100 scale ([6]; postemergence, 16 g a.i./ha): 86
- ERICA plant response rating, 0 to 100 scale ([6]; postemergence, 31 g a.i./ha): 90
- ERICA plant response rating, 0 to 100 scale ([6]; postemergence, 62 g a.i./ha): 90
- ERICA plant response rating, 0 to 100 scale ([6]; preemergence, 8 g a.i./ha): 93
- ERICA plant response rating, 0 to 100 scale ([6]; preemergence, 16 g a.i./ha): 100
- ERICA plant response rating, 0 to 100 scale ([6]; preemergence, 31 g a.i./ha): 100
- ERICA plant response rating, 0 to 100 scale ([6]; preemergence, 62 g a.i./ha): 100
- Plant response rating (0 to 100 scale) [7, 9]: 23
- AMAPA plant response rating, 0 to 100 scale ([7]; postemergence, 8 g a.i./ha): 38
- AMAPA plant response rating, 0 to 100 scale ([7]; postemergence, 16 g a.i./ha): 40
- AMAPA plant response rating, 0 to 100 scale ([7]; postemergence, 31 g a.i./ha): 50
- AMAPA plant response rating, 0 to 100 scale ([7]; postemergence, 62 g a.i./ha): 65
- AMAPA plant response rating, 0 to 100 scale ([7]; preemergence, 8 g a.i./ha): 23
- AMAPA plant response rating, 0 to 100 scale ([7]; preemergence, 16 g a.i./ha): 44
- AMAPA plant response rating, 0 to 100 scale ([7]; preemergence, 31 g a.i./ha): 23
- AMAPA plant response rating, 0 to 100 scale ([7]; preemergence, 62 g a.i./ha): 61
- Plant response rating (0 to 100 scale) [7, 10]: 44
- Plant response rating (0 to 100 scale) [7, 11]: 23
- Plant response rating (0 to 100 scale) [7, 12]: 61
- Plant response rating (0 to 100 scale) [8, 9]: 0
- GLXMA plant response rating, 0 to 100 scale ([8]; postemergence, 8 g a.i./ha): 0
- GLXMA plant response rating, 0 to 100 scale ([8]; postemergence, 16 g a.i./ha): 0
- GLXMA plant response rating, 0 to 100 scale ([8]; postemergence, 31 g a.i./ha): 15
- GLXMA plant response rating, 0 to 100 scale ([8]; postemergence, 62 g a.i./ha): 16
- GLXMA plant response rating, 0 to 100 scale ([8]; preemergence, 8 g a.i./ha): 0
- GLXMA plant response rating, 0 to 100 scale ([8]; preemergence, 16 g a.i./ha): 0
- GLXMA plant response rating, 0 to 100 scale ([8]; preemergence, 31 g a.i./ha): 0
- GLXMA plant response rating, 0 to 100 scale ([8]; preemergence, 62 g a.i./ha): 0
- Plant response rating (0 to 100 scale) [8, 10]: 0
- Plant response rating (0 to 100 scale) [8, 11]: 0
- Plant response rating (0 to 100 scale) [8, 12]: 0
